Test results published in patent US8623347B2 (priority 2008, dated 2014).
pEC50: −log10 of the molar value. Read-outs that look alike come from different tables or passages of the source.

Key:
[1] = tested on: LCMV Armstrong strain (Arm53b); assay: organism not typed; assay type: cell-based; settings: for pEC50: Vero
[2] = tested on: LCMV NP and L proteins (replication and transcription of RNA analog); assay type: cell-based
LCMV S RNA and NP mRNA = assay type: cell-based
LCMV = settings: cited from earlier work
[3] = read-out: 50% effective concentration (EC50)
[4] = read-out: Activity (EC50 class)

SMILES	pEC50 [1, 4]	further results
c1ccc2[nH]c(-c3nc4ccccc4[nH]3)nc2c1 [Compound 1, 1H, 1′H-[2,2′]Bibenzoimidazolyl]	> 6.00	CC50 (in vitro): > 25 µM; screening result in compound library screen [1]: hit; pEC50 [1, 3]: 7.10; CAT reporter activity [2]: No CAT activity was observed; synthesis of viral S RNA and NP mRNA relative to untreated controls (LCMV S RNA and NP mRNA): dramatically suppressed
Cc1cc2nc(-c3nc4cc(C)c(C)cc4[nH]3)[nH]c2cc1C [Compound 2, 5,6,6′,6′-Tetramethyl-1H, 1′H-[2,2′]bibenzoimidazolyl]	5.00 to 6.00	–
Cn1c(-c2nc3ccccc3n2C)nc2ccccc21 [Compound 3, 1,1′-Dimethyl-1H,1′H-[2,2′]bibenzoimidazolyl]	< 4.60	–
O=[N+]([O-])c1ccc2nc(-c3nc4ccc([N+](=O)[O-])cc4[nH]3)[nH]c2c1 [Compound 5, 6,6′-Dinitro-1H,1′H-[2,2′]bibenzoimidazolyl]	< 4.60	–
Fc1cccc2[nH]c(-c3nc4c(F)cccc4[nH]3)nc12 [Compound 6, 4,4′-Difluoro-1H,1′H-[2,2′]bibenzoimidazolyl]	> 6.00	pEC50 [1, 3]: 8.22
Fc1ccc2[nH]c(-c3nc4cc(F)ccc4[nH]3)nc2c1 [Compound 7, 5,5′-Difluoro-1H,1′H-[2,2′]bibenzoimidazolyl]	> 6.00	pEC50 [1, 3]: 7.20
Clc1ccc2[nH]c(-c3nc4cc(Cl)ccc4[nH]3)nc2c1 [Compound 8, 5,5′-Dichloro-1H,1′H-[2,2′]bibenzoimidazolyl]	5.00 to 6.00	–
Brc1ccc2[nH]c(-c3nc4cc(Br)ccc4[nH]3)nc2c1 [Compound 9, 5,5′-Dibromo-1H,1′H-[2,2′]bibenzoimidazolyl]	5.00 to 6.00	–
Cc1cccc2[nH]c(-c3nc4c(C)cccc4[nH]3)nc12 [Compound 10, 4,4′-Dimethyl-1H,1′H-[2,2′]bibenzoimidazolyl]	< 4.60	–
Cc1ccc2[nH]c(-c3nc4cc(C)ccc4[nH]3)nc2c1 [Compound 11, 5,5′-Dimethyl-1H,1′H-[2,2′]bibenzoimidazolyl]	< 4.60	–
COc1cccc2[nH]c(-c3nc4c(OC)cccc4[nH]3)nc12 [Compound 12, 4,4′-Dimethoxy-1H,1′H-[2,2′]bibenzoimidazolyl]	< 4.60	–
COc1ccc2[nH]c(-c3nc4cc(OC)ccc4[nH]3)nc2c1 [Compound 13, 5,5′-Dimethoxy-1H,1′H-[2,2′]bibenzoimidazolyl]	4.60 to 5.00	–
COC(=O)c1cccc2[nH]c(-c3nc4c(C(=O)OC)cccc4[nH]3)nc12 [Compound 14, 1H,1′H-[2,2′]Bibenzoimidazolyl-4,4′-dicarboxylic acid dimethyl ester]	< 4.60	–
COC(=O)c1ccc2[nH]c(-c3nc4cc(C(=O)OC)ccc4[nH]3)nc2c1 [Compound 15, 1H,1′H-[2,2′]Bibenzoimidazolyl-5,5′-dicarboxylic acid dimethyl ester]	< 4.60	–
c1ccc(-c2cccc3[nH]c(-c4nc5c(-c6ccccc6)cccc5[nH]4)nc23)cc1 [Compound 16, 4,4′-Diphenyl-1H,1′H-[2,2′]bibenzoimidazolyl]	< 4.60	melting point: 247 to 250 °C (dec.)
Fc1ccc2[nH]c(-c3nc4c(F)c(F)ccc4[nH]3)nc2c1F [Compound 17, 4,5,4′,5′-Tetrafluoro-1H,1′H-[2,2′]bibenzoimidazolyl]	> 6.00	–
Fc1cc(F)c2nc(-c3nc4c(F)cc(F)cc4[nH]3)[nH]c2c1 [Compound 18, 4,6,4′,6′-Tetrafluoro-1H,1′H-[2,2′]bibenzoimidazolyl]	> 6.00	–
Fc1cc2nc(-c3nc4cc(F)c(F)cc4[nH]3)[nH]c2cc1F [Compound 19, 5,6,5′,6′-Tetrafluoro-1H,1′H-[2,2′]bibenzoimidazolyl]	> 6.00	–
c1cnc2nc(-c3nc4ncccc4[nH]3)[nH]c2c1 [Compound 20, 1H,1′H-[2,2′]Bi[imidazo[4,5 b]pyridinyl]]	> 6.00	–
c1cc2nc(-c3nc4ccncc4[nH]3)[nH]c2cn1 [Compound 21, 3H,3′H-[2,2′]Bi[imidazo[4,5 c]pyridinyl]]	4.60 to 5.00	melting point: > 300 °C
NC(=O)c1ncn([C@@H]2O[C@H](CO)[C@@H](O)[C@H]2O)n1 [ribavirin]	–	antiviral activity against LCMV in vitro (LCMV): limited antiviral activity
